Results taken from patent publication US20240109937A1, “BINDING PEPTIDES AND USES THEREOF” (The Johns Hopkins University, priority 2021, published 2024).

What was measured:
[1] = target: T1, CAPN1 (Mus musculus, UniProt O35350); assay: Calpain activity assay (Suc-LLVY-AMC cleavage) in HL-1 cells under Ca2+ overload; type: cell-based; settings: Calcimycin 1 μM in HBS KV medium, dose-dependent response
T1 construct: endogenous in cells; host or cells: HL-1 cardiomyocytes
T1 sequence (O35350 1-713): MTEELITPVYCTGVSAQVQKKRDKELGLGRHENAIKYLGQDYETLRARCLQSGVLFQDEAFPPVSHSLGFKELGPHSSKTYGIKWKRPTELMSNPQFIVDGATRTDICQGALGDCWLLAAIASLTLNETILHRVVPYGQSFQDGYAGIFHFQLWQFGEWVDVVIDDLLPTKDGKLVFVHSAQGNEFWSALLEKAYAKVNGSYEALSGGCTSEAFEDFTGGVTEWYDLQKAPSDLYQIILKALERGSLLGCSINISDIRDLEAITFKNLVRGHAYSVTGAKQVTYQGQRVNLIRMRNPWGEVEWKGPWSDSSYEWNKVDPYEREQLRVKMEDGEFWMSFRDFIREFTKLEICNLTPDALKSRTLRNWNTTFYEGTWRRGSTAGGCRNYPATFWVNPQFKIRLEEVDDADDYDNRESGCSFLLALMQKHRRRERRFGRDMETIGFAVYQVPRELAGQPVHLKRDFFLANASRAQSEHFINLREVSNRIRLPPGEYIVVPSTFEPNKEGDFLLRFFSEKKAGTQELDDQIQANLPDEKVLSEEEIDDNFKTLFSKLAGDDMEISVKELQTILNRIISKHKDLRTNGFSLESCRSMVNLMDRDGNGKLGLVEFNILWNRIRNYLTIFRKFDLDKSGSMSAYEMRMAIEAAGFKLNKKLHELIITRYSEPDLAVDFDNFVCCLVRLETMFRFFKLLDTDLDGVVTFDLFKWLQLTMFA
T1 sequence (O88456 1-268 partner): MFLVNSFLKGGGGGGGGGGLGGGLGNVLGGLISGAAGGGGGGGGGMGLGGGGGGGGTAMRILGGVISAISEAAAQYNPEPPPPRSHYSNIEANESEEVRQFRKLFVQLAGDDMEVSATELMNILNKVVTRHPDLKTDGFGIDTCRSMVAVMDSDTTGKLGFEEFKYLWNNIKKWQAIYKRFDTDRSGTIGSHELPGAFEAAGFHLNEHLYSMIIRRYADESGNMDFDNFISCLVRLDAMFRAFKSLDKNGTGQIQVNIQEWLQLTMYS
Protocol: Calcium (Ca^2+) Overload Protocol: Rapid and sustained intracellular Ca^2+ overload was obtained by adding the Ca^2+-ionophore, calcimycin (1 μM), to HL-1 cells incubated for 10 min in HBS KV medium (1.26 mM CaCl2, 0.81 mM MgSO4, 0.44 mM KH2PO4, 142 mM KCl, 0.27 mM K2HPO4, 5.55 mM D-glucose, 1 mM Na3VO4, 20 mM Hepes pH 7.4). To monitor intracellular Ca^2+ variations, HL-1 cells were loaded with 5 μM Fluo-4 FF AM (Molecular Probes) in HBS Na (Sigma) for 30 min before the media was replaced with HBS KV. […] Calpain (CAPN) Activity Assay: […] HL-1 cells were grown in 24-well plates and incubated for 30 min in HBS Na (Sigma) with 25 μM Suc-LLVY-AMC (SEQ ID NO: 81) and 0.01% pluronic F127 (Molecular Probes) before treatment protocols. […] CAPN activity was inhibited via the addition of either calpeptin (Tocris) or PD150606 (Calbiochem) in the incubation medium.

[2] = test system: HL-1 cells; assay: Mitochondrial membrane potential (JC-1) assay in HL-1 cells; type: cell-based, mouse; settings: Calcimycin 1 μM in HBS KV medium
Protocol: Calcium (Ca^2+) Overload Protocol: Rapid and sustained intracellular Ca^2+ overload was obtained by adding the Ca^2+-ionophore, calcimycin (1 μM), to HL-1 cells incubated for 10 min in HBS KV medium (1.26 mM CaCl2, 0.81 mM MgSO4, 0.44 mM KH2PO4, 142 mM KCl, 0.27 mM K2HPO4, 5.55 mM D-glucose, 1 mM Na3VO4, 20 mM Hepes pH 7.4). To monitor intracellular Ca^2+ variations, HL-1 cells were loaded with 5 μM Fluo-4 FF AM (Molecular Probes) in HBS Na (Sigma) for 30 min before the media was replaced with HBS KV. […] Mitochondrial Membrane Potential (MMP) Assay: MMP was determined using the potentiometric probe, JC-1. JC-1 (Molecular Probes) is a cationic carbocyanine dye that selectively accumulates in polarized mitochondria, where it forms red fluorescent aggregates (excitation 485/emission 590 nm). Upon mitochondrial depolarization, JC-1 is released into the cytosol, whereas a monomer emits green fluorescence (excitation 485 nm/emission 520 nm). Therefore, MMP variations were monitored as the ratio of fluorescent emissions at 590/520 nm using a fluorimeter plate reader (Fluoroskan Ascent Labsystem). HL-1 cells were incubated with JC-1 (1.5 μM) for 30 min at 37° C. in HBS Na before treatment protocols.

[3] = target: T1, CAPN1; assay: Western blot of CAPN1 in purified mitochondria from HL-1 cells under Ca2+ overload; type: cell-based; settings: Ca2+ overload (HBS KVC), calpeptin 50 μM, PD150606 10 μM
Protocol: Calcium (Ca^2+) Overload Protocol: Rapid and sustained intracellular Ca^2+ overload was obtained by adding the Ca^2+-ionophore, calcimycin (1 μM), to HL-1 cells incubated for 10 min in HBS KV medium (1.26 mM CaCl2, 0.81 mM MgSO4, 0.44 mM KH2PO4, 142 mM KCl, 0.27 mM K2HPO4, 5.55 mM D-glucose, 1 mM Na3VO4, 20 mM Hepes pH 7.4). To monitor intracellular Ca^2+ variations, HL-1 cells were loaded with 5 μM Fluo-4 FF AM (Molecular Probes) in HBS Na (Sigma) for 30 min before the media was replaced with HBS KV. The fluorescence was recorded using a fluorimeter plate reader (Fluoroskan Ascent Labsystem) at wavelength settings of 485/530 nm for excitation/emission, respectively.
Mitochondria Isolation Protocol: Mitochondria were isolated from HL-1 cells in percoll density gradient. Briefly, 30×10^6 adherent cells were harvested with Trypsin/EDTA, centrifuged at 500×g for 10 min, washed in buffer A (100 mM sucrose, 1 mM EGTA, 20 mM MOPS, pH 7.4, and 1 mg/mL BSA) before cell disruption with a Dounce homogenizer. The suspension was centrifuged twice at 500× g for 5 min and the resulting supernatant at 10,000×g for 10 min at 4° C. The pellet was re-suspended in buffer B (300 mM sucrose, 1 mM EGTA, 20 mM MOPS pH 7.4, 1 mg/mL BSA), and the homogenate was layered on a two-phase (25% and 40%) percoll density gradient. […]

CCCC[C@@H](C=O)NC(=O)[C@H](CC(C)C)NC(=O)OCc1ccccc1 [calpeptin]
reduction in Ca2+ overload-induced CAPN1 substrate hydrolysis [1]: ~75%
Ca2+ overload-induced decrease in mitochondrial membrane potential (MMP) [2]: significantly attenuated
mitochondrial CAPN1 translocation [3]: failed to prevent
